# Laboratory results from US11629135B2 (JUBILANT PRODEL LLC, priority 2017, dated 2023).
# Target: T1, PD-1/PD-L1 interaction (Homo sapiens, UniProt Q9NZQ7)
# T1 construct: Tag1 or Tag2 (undisclosed kit tag); purchased CisBio 63ADK000CPAPEG
# Experiment: PD-1/PD-L1 Homogenous Time-Resolved Fluorescence (HTRF) binding assay
# Details: Biochemical PD1/PD-L1 inhibition
# Experimental: PD-L1 Enzyme Assay: Homogenous Time-Resolved Fluorescence (HTRF) Binding Assay
# All binding studies were performed using PD-1/PD-L1 Binding Assay Kit from CisBio (Catalog #63ADK000CPAPEG), according to the manufacturer's protocol. The interaction between Tag1-PD-1 and […] was detected by anti-Tag1-Eu^3+ (HTRF donor) and anti-Tag2-XL665 (HTRF acceptor). When the donor and acceptor antibodies were brought to close proximity due to PD-1 and PD-L1 binding, excitation of the donor antibody triggered fluorescent resonance energy transfer (FRET) towards the acceptor antibody, which in turn emitted specifically at 665 nm. This specific signal is positively proportional to PD-1/PD-L1 interaction. The compounds blocking PD-1/PD-L1 interaction will cause a reduction in HTRF signal. The necessary reagents were mixed in the following order: 2 μl compounds (or diluents buffer), 4 μl PD-L1 protein, 4 μl PD-1 protein. After an incubation of 15 minutes, 5 μl of anti-Tag1-Eu^3+ and 5 μl of anti-Tag2-XL665 were added. The plate was sealed and incubated at RT for 1 h. The fluorescence emission was read at two different wavelengths (665 nm and 620 nm) on a BMG PheraStar® multiplate reader. Results were calculated from the 665 nm and 620 nm fluorescence signal and expressed in HTRF ratio=(665 nm/620 nm)×[…].
# T1 sequence (Q9NZQ7 19-238 limits assumed): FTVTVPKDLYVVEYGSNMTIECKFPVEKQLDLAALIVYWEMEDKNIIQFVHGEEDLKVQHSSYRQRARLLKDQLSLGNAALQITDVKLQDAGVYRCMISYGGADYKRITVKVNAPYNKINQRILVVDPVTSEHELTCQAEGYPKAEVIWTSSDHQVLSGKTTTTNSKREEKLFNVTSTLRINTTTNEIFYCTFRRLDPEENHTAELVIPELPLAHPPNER
row,SMILES,IC50 [nM]
1,"CCOc1nc(OCc2cccc(-c3ccccc3)c2C)ncc1CNC(CO)(CO)CO [Compound 25, 2-(((4-ethoxy-2-((2-methyl-[1,1′-biphenyl]-3-yl)methoxy)pyrimidin-5-yl)methyl)amino)-2-(hydroxymethyl)propane-1,3-diol]",< 100
2,"Cc1c(COc2ncc(CN3CCCC[C@H]3C(=O)O)c(OCc3cncc(C#N)c3)n2)cccc1-c1ccccc1 [Compound 12, (S)-1-((4-((5-cyanopyridin-3-yl)methoxy)-2-((2-methyl-[1,1′-biphenyl]-3-yl)methoxy)pyrimidin-5-yl)methyl)piperidine-2-carboxylic acid]",> 500
3,"CCOc1nc(OCc2cccc(-c3ccccc3)c2C)ncc1CNCCNC(C)=O [Compound 21, N-(2-(((4-ethoxy-2-((2-methyl-[1,1′-biphenyl]-3-yl)methoxy)pyrimidin-5-yl)methyl)amino)ethyl)acetamide]",> 500
4,"COc1nc(OCc2cccc(-c3ccccc3)c2C)ncc1CN1CC2(CC2)C[C@H]1C(=O)O [Compound 51, (S)-5-((4-methoxy-2-((2-methyl-[1,1′-biphenyl]-3-yl)methoxy)pyrimidin-5-yl)methyl)-5-azaspiro[2.4]heptane-6-carboxylic acid]",> 500
5,"COc1nc(OCc2cccc(-c3ccccc3)c2C)nc(OC)c1CN1CCOCC1CC(=O)O (centres unmarked) [Compound 44, 2-(4-((4,6-dimethoxy-2-((2-methyl-[1,1′-biphenyl]-3-yl)methoxy)pyrimidin-5-yl)methyl)morpholin-3-yl)acetic acid]",100 to 500
6,"CCOc1nc(OCc2cccc(-c3ccccc3)c2C)nc(OCC)c1CNCCNC(C)=O [Compound 6, N-(2-(((4,6-diethoxy-2-((2-methyl-[1,1′-biphenyl]-3-yl)methoxy)pyrimidin-5-yl)methyl)amino)ethyl)acetamide]",100 to 500
7,"CCOc1nc(OCc2cccc(-c3ccccc3)c2C)ncc1CN(C)CC(=O)O [Compound 2, N-((4-ethoxy-2-((2-methyl-[1,1′-biphenyl]-3-yl)methoxy)pyrimidin-5-yl)methyl)-N-methyl glycine]",> 500
8,"COc1nc(OCc2cccc(-c3ccccc3F)c2C)ncc1CN1CCCC[C@H]1C(=O)O [Compound 19, (S)-1-((2-((2′-fluoro-2-methyl-[1,1′-biphenyl]-3-yl)methoxy)-4-methoxypyrimidin-5-yl)methyl)piperidine-2-carboxylic acid]",100 to 500
9,"CCOc1nc(OCc2cccc(-c3ccccc3)c2C)ncc1CN1CCC1C(=O)O (centres unmarked) [Compound 31, 1-((4-ethoxy-2-((2-methyl-[1,1′-biphenyl]-3-yl)methoxy)pyrimidin-5-yl)methyl)azetidine-2-carboxylic acid]",100 to 500
10,"CC(=O)NCCNCc1cnc(OCc2cccc(-c3ccccc3)c2C)nc1OCc1ccccc1 [Compound 32, N-(2-(((4-(benzyloxy)-2-((2-methyl-[1,1′-biphenyl]-3-yl)methoxy)pyrimidin-5-yl)methyl)amino)ethyl)acetamide]",> 500
11,"CC(=O)NCCNCc1cnc(OCc2cccc(-c3ccccc3)c2C)nc1OCc1ccc(F)c(C#N)c1 [Compound 53, N-(2-(((4-((3-cyano-4-fluorobenzyl)oxy)-2-((2-methyl-[1,1′-biphenyl]-3-yl)methoxy)pyrimidin-5-yl)methyl)amino)ethyl)acetamide]",> 500
12,"COc1nc(OCc2cccc(-c3ccccc3)c2C)ncc1CN1CCCC[C@H]1CC(=O)O [Compound 60, (S)-2-(1-((4-methoxy-2-((2-methyl-[1,1′-biphenyl]-3-yl)methoxy)pyrimidin-5-yl)methyl)piperidin-2-yl) acetic acid]",100 to 500
13,"COc1nc(OCc2cccc(-c3ccccc3)c2C)nc(OC)c1CN1CCC[C@@H]2C[C@@]21C(=O)O (single isomer, unassigned) [Compound 5]",100 to 500
14,"COc1nc(OCc2cccc(-c3ccc(F)cc3)c2C)ncc1CNCCNC(C)=O [Compound 1, N-(2-(((2-((4′-fluoro-2-methyl-[1,1′-biphenyl]-3-yl)methoxy)-4-methoxypyrimidin-5-yl)methyl)amino)ethyl)acetamide]",> 500
15,CCOc1nc(OCc2cccc(-c3ccccc3)c2C)ncc1CNCCC(=O)O [Compound 24],> 500
16,"COc1nc(OCc2cccc(-c3ccccc3)c2C)ncc1CN1CCCC2(CCNC2=O)C1 (centres unmarked) [Compound 52, 7-((4-methoxy-2-((2-methyl-[1,1′-biphenyl]-3-yl)methoxy)pyrimidin-5-yl)methyl)-2,7-diazaspiro[4.5]decan-1-one]",> 500

row,SMILES,IC50 [nM]
1,"COc1nc(OCc2cccc(-c3ccccc3)c2C)ncc1CNCCNC(C)=O [Compound 14, N-(2-(((4-methoxy-2-((2-methyl-[1,1′-biphenyl]-3-yl)methoxy)pyrimidin-5-yl)methyl)amino)ethyl)acetamide]",100 to 500
2,"CCOc1nc(OCc2cccc(-c3ccccc3)c2C)ncc1CNC(CC(N)=O)C(=O)O (centres unmarked) [Compound 29, ((4-ethoxy-2-((2-methyl-[1,1′-biphenyl]-3-yl)methoxy)pyrimidin-5-yl)methyl)asparagine]",100 to 500
3,"COc1nc(OCc2cccc(-c3ccccc3)c2C)nc(OC)c1CNCCNC(C)=O [Compound 3, N-(2-(((4,6-dimethoxy-2-((2-methyl-[1,1′-biphenyl]-3-yl)methoxy)pyrimidin-5-yl)methyl)amino)ethyl)acetamide]",< 100
4,"COc1nc(OCc2cccc(-c3ccccc3)c2C)nc(OC)c1CN1CCOC[C@H]1C(=O)O [Compound 43, (S)-4-((4,6-dimethoxy-2-((2-methyl-[1,1′-biphenyl]-3-yl)methoxy)pyrimidin-5-yl)methyl)morpholine-3-carboxylic acid]",< 100
5,"COc1nc(OCc2cccc(-c3ccccc3)c2C)ncc1CN1CCCC[C@@H]1C(=O)O [Compound 15, (R)-1-((4-methoxy-2-((2-methyl-[1,1′-biphenyl]-3-yl)methoxy)pyrimidin-5-yl)methyl)piperidine-2-carboxylic acid]",100 to 500
6,"COc1ccc(-c2cccc(COc3nc(OC)c(CNCCNC(C)=O)c(OC)n3)c2C)cc1OC [Compound 57, N-(2-(((2-((3′,4′-dimethoxy-2-methyl-[1,1′-biphenyl]-3-yl)methoxy)-4,6-dimethoxypyrimidin-5-yl)methyl)amino)ethyl)acetamide]",> 500
7,"CC(=O)NCCNCc1cnc(OCc2cccc(-c3ccccc3)c2C)nc1C [Compound 65, N-(2-(((4-methyl-2-((2-methyl-[1,1′-biphenyl]-3-yl)methoxy)pyrimidin-5-yl)methyl)amino)ethyl)acetamide]",100 to 500
8,"Cc1c(COc2ncc(CN3CCCC[C@H]3C(=O)O)c(OCCCCO)n2)cccc1-c1ccccc1 [Compound 10, (S)-1-((4-(4-hydroxybutoxy)-2-((2-methyl-[1,1′-biphenyl]-3-yl)methoxy)pyrimidin-5-yl)methyl)piperidine-2-carboxylic acid]",100 to 500
9,"COc1nc(OCc2cccc(-c3ccccc3F)c2C)ncc1CNCCNC(C)=O [Compound 20, N-(2-(((2-((2′-fluoro-2-methyl-[1,1′-biphenyl]-3-yl)methoxy)-4-methoxypyrimidin-5-yl)methyl)amino)ethyl)acetamide]",> 500
10,"COc1nc(OCc2cccc(-c3ccccc3)c2C)nc(OC)c1CNC(CO)(CO)CO [Compound 35, 2-(((4,6-dimethoxy-2-((2-methyl-[1,1′-biphenyl]-3-yl)methoxy)pyrimidin-5-yl)methyl)amino)-2-(hydroxymethyl)propane-1,3-diol]",< 100
11,"Cc1c(COc2ncc(CN3CCCC[C@H]3C(=O)O)c(OCC(F)(F)F)n2)cccc1-c1ccccc1 [Compound 9, (S)-1-((2-((2-methyl-[1,1′-biphenyl]-3-yl)methoxy)-4-(2,2,2-trifluoroethoxy)pyrimidin-5-yl)methyl)piperidine-2-carboxylic acid]",> 500
12,"CCOc1nc(OCc2cccc(-c3ccccc3)c2C)ncc1CN1C[C@H](O)CC1C(=O)O (stereo in doubt) [Compound 30, (2R,4R)-1-((4-ethoxy-2-((2-methyl-[1,1′-biphenyl]-3-yl)methoxy)pyrimidin-5-yl)methyl)-4-hydroxypyrrolidine-2-carboxylic acid]",100 to 500
13,"Cc1c(COc2ncc(CN3C[C@H](O)C[C@H]3C(=O)O)c(OCc3cncc(C#N)c3)n2)cccc1-c1ccccc1 [Compound 59, (2S,4R)-1-((4-((5-cyanopyridin-3-yl)methoxy)-2-((2-methyl-[1,1′-biphenyl]-3-yl)methoxy)pyrimidin-5-yl)methyl)-4-hydroxypyrrolidine-2-carboxylic acid]",> 500
14,"COc1nc(OCc2cccc(-c3ccccc3)c2C)nc(OC)c1CN1CCC[C@H]1C(=O)O [Compound 36, ((4,6-dimethoxy-2-((2-methyl-[1,1′-biphenyl]-3-yl)methoxy)pyrimidin-5-yl)methyl)-L-proline]",100 to 500
15,"CCOc1nc(OCc2cccc(-c3ccccc3)c2C)ncc1CN1CCCC[C@H]1C(=O)O [Compound 22, (S)-1-((4-ethoxy-2-((2-methyl-[1,1′-biphenyl]-3-yl)methoxy)pyrimidin-5-yl)methyl)piperidine-2-carboxylic acid]",100 to 500
16,"COc1nc(OCc2cccc(-c3ccccc3)c2C)nc(OC)c1CN1CCCC2C[C@]21C(=O)O (single isomer, unassigned) [Compound 4]",< 100
